For one experiment, the target named is hD2L receptors (Homo sapiens, UniProt P14416). As to the kind of experiment: D2R Gi/o-mediated cAMP inhibition assay. The class given is cell-based. Particulars: for Emax: HEK-293T; for decrease of potency in Gi/o pathway compared to compound 1 / activity in Gi/o signaling (in words): cAMP inhibition assay.
For the next experiment, the target named is D2L receptors (Homo sapiens, UniProt P14416). As to the kind of experiment: D2R β-arrestin-2 recruitment Tango assay. The experiment is classed as cell-based. Particulars: for Emax: HTLA, read-out: β-arrestin Emax (%); for EC50: β-arrestin EC50 (nM), HTLA cells. (Recruitment of arrestin is a read-out of receptor activation apart from second messengers.)
D2L receptors, sequence (P14416 whole entry): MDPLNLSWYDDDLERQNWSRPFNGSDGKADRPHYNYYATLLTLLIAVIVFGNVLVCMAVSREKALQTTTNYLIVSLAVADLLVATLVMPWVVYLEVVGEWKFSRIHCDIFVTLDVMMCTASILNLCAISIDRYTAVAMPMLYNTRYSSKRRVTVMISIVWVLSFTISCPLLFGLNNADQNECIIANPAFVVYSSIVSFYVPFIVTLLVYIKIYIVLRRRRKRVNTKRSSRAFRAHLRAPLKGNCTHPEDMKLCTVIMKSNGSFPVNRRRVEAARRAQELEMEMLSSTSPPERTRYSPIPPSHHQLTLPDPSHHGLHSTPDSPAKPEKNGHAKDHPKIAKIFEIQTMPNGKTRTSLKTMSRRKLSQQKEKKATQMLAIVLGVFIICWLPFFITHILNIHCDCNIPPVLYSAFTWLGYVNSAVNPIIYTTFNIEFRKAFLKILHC
[1] abbreviates: read-out: cAMP Emax (%), HEK293T cells, GloSensor-22F, normalized to maximum cAMP inhibition by quinpirole (100%).

SMILES strings stand for the structures. Where two headings read alike, the source gives them in different places.

hD2L receptors, sequence (P14416 whole entry): as above

For `Cc1nc2cc(OCCCN3CCN(c4cccc(Cl)c4Cl)CC3)ccc2s1` [Compound 2, 5-(3-(4-(2,3-Dichlorophenyl)piperazin-1-yl)propoxy)-2-methylbenzo[d]thiazole], the “D2R agonist profile in β-arrestin and Gi/o pathways” value at hD2L receptors (compared with β-arrestin recruitment Tango assay) is “balanced D2R agonist”.
As usually defined, the Emax is the maximal effect, on the per cent scale that the assay sets. By EC50 is commonly meant the concentration at which the effect is half-maximal. A lower EC50 goes with higher potency in that assay. For the compound `Cc1nc2ccc(OCCCCN3CCN(c4cccc(Cl)c4Cl)CC3)cc2s1` [Compound 3, 6-(4-(4-(2,3-Dichlorophenyl)piperazin-1-yl)butoxy)-2-methylbenzo[d]thiazole], the Emax stood at 42% at hD2L receptors (read-out: cAMP Emax (%)) and 22% at D2L receptors. In addition, the “decrease of potency in Gi/o pathway compared to compound 1” value at hD2L receptors is 2 fold. Also, on D2L receptors (Tango assay), the “decrease of potency in β-arrestin recruitment compared to compound 1” value was found to be 5 fold. The same compound yielded an EC50 at D2L receptors (Tango assay) of 76 nM.
Regarding `Clc1nc2cc(OCCCCN3CCN(c4cccc(Cl)c4Cl)CC3)ccc2s1` [Compound 6, 2-Chloro-5-(4-(4-(2,3-dichlorophenyl)piperazin-1-yl)butoxy)benzo[d]thiazole], the results for the maximal effect (Emax) on hD2L receptors (setting [1]) and on D2L receptors were 50% and 40%, respectively. At D2L receptors (Tango assay), the EC50 came out at 48 nM.
As for `O=c1[nH]c2cc(OCCCCN3CCN(c4cccc(Cl)c4Cl)CC3)ccc2s1` [Compound 7, 5-(4-(4-(2,3-Dichlorophenyl)piperazin-1-yl)butoxy)benzo[d]thiazol-2(3H)-one], the Emax is 67% on hD2L receptors (read-out: cAMP Emax (%)) and 59% at D2L receptors. This compound also displayed an EC50 at D2L receptors (Tango assay) of 2.6 nM.
For the compound `FC(F)(F)c1nc2cc(OCCCCN3CCN(c4cccc(Cl)c4Cl)CC3)ccc2s1` [Compound 11, 5-(4-(4-(2,3-Dichlorophenyl)piperazin-1-yl)butoxy)-2-(trifluoromethyl)benzo[d]thiazole], on D2L receptors, the Emax is 40%.
Regarding `CCc1nc2cc(OCCCCN3CCN(c4cccc(Cl)c4Cl)CC3)ccc2s1` [Compound 18, 5-(4-(4-(2,3-Dichlorophenyl)piperazin-1-yl)butoxy)-2-ethylbenzo[d]thiazole], the Emax was 43% at hD2L receptors (setting [1]) and < 20% at D2L receptors.
Taken in the same sequence, the figures for `CC(C)c1nc2cc(OCCCCN3CCN(c4cccc(Cl)c4Cl)CC3)ccc2s1` [Compound 19, 5-(4-(4-(2,3-Dichlorophenyl)piperazin-1-yl)butoxy)-2-isopropylbenzo[d]thiazole] were 33% and < 20%.
Take `CN(C)c1nc2cc(OCCCCN3CCN(c4cccc(Cl)c4Cl)CC3)ccc2s1` [Compound 25, 5-(4-(4-(2,3-Dichlorophenyl)piperazin-1-yl)butoxy)-N,N-dimethylbenzo[d]thiazol-2-amine]: at hD2L receptors, the “activity in Gi/o signaling (in words)” value was “did not show any activity”. Moreover, the “activity in β-arrestin recruitment (in words)” value on D2L receptors (Tango assay) was “did not show any activity”.
On to `Cc1nc2cc(OCCCCN3CCC(c4cccc(Cl)c4Cl)CC3)ccc2s1` [Compound 30, 5-(4-(4-(2,3-Dichlorophenyl)piperidin-1-yl)butoxy)-2-methylbenzo[d]thiazole], for which the figures for the Emax on hD2L receptors (read-out: cAMP Emax (%)) and at D2L receptors were 66% and 31%, respectively. On D2L receptors (Tango assay), this compound returned an EC50 of 49 nM.
In the case of `Cc1nc2cc(OCCCCN3CCCN(c4cccc(Cl)c4Cl)CC3)ccc2s1` [Compound 31, 5-(4-(4-(2,3-Dichlorophenyl)-1,4-diazepan-1-yl)butoxy)-2-methylbenzo[d]thiazole], the results for the Emax at hD2L receptors (read-out: cAMP Emax (%)) and on D2L receptors were 22% and < 20%, respectively. Besides, the “activity in β-arrestin recruitment (in words)” value at D2L receptors (Tango assay) was “inactive”.
`COc1ccccc1N1CCN(CCCCOc2ccc3sc(C)nc3c2)CC1` [Compound 32, 5-(4-(4-(2-Methoxyphenyl)piperazin-1-yl)butoxy)-2-methylbenzo[d]thiazole]: the Emax at hD2L receptors (read-out: cAMP Emax (%)) worked out at 61%; at D2L receptors, 25%. The “decrease of potency in Gi/o pathway compared to compound 1” value on hD2L receptors is “around 5 fold”. Also, the EC50 at D2L receptors (Tango assay) is 8.5 nM.
As to `Cc1nc2cc(OCCCCN3CCN(c4cccc(Cl)c4Cl)[C@@H](C)C3)ccc2s1` [Compound 34, (S)-5-(4-(4-(2,3-Dichlorophenyl)-3-methylpiperazin-1-yl)butoxy)-2-methylbenzo[d]thiazole], on hD2L receptors, the “activity in Gi/o signaling (in words)” value is listed as “no appreciable activity”. For the same compound, the “activity in β-arrestin recruitment (in words)” value on D2L receptors (Tango assay) is listed as “no appreciable activity”.
Turning to `Cc1ccc2cccc(N3CCN(CCCCOc4ccc5sc(C)nc5c4)CC3)c2n1` [Compound 36, 2-Methyl-5-(4-(4-(2-methylquinolin-8-yl)piperazin-1-yl)butoxy)benzo[d]thiazole], the Emax at hD2L receptors (read-out: cAMP Emax (%)) was 25%; on D2L receptors, < 20%.
With `Cc1nc2cc(OCCCCN3CCN(c4cccc5c4OCCN5)CC3)ccc2s1` [Compound 39, 8-(4-(4-((2-Methylbenzo[d]thiazol-5-yl)oxy)butyl)piperazin-1-yl)-3,4-dihydro-2H-benzo[b][1,4]oxazine], the Emax is 29% at hD2L receptors (read-out: cAMP Emax (%)) and < 20% at D2L receptors. Further, the “activity in β-arrestin recruitment (in words)” value at D2L receptors (Tango assay) is reported as “did not recruit β-arrestin at all”.
With `Cc1nc2cc(OCCCCN3CCN(c4cccc5c4OCCO5)CC3)ccc2s1` [Compound 40, 5-(4-(4-(2,3-Dihydrobenzo[b][1,4]dioxin-5-yl)piperazin-1-yl)butoxy)-2-methylbenzo[d]thiazole], the maximal response (Emax) on hD2L receptors (read-out: cAMP Emax (%)) is 50%. For the same compound, on D2L receptors (Tango assay), it took 3.6 nM to reach a half-maximal effect (EC50).
As to `Cc1nc2cc(OCCCCN3CCN(c4cccc(-c5ccccc5)c4C)CC3)ccc2s1` [Compound 44, 2-Methyl-5-(4-(4-(2-methyl-[1,1'-biphenyl]-3-yl)piperazin-1-yl)butoxy)benzo[d]thiazole], the “activity in Gi/o signaling (in words)” value on hD2L receptors was “completely inactive”. The “activity in β-arrestin recruitment (in words)” value at D2L receptors (Tango assay) is “completely inactive”.
Turning to `Cc1nc2cc(OCCCCN3CCN(c4cccc5[nH]c(=O)oc45)CC3)ccc2s1` [Compound 45, 7-(4-(4-((2-Methylbenzo[d]thiazol-5-yl)oxy)butyl)piperazin-1-yl)benzo[d]oxazol-2(3H)-one], the maximal effect (Emax) at hD2L receptors (read-out: cAMP Emax (%)) is 90%; on D2L receptors, 88%. The same compound had an EC50 at D2L receptors (Tango assay) of 0.36 nM.
For `CC(C)c1nc2cc(OCCCCN3CCC(c4cccc(Cl)c4Cl)CC3)ccc2s1` [Compound 47, 5-(4-(4-(2,3-Dichlorophenyl)piperidin-1-yl)butoxy)-2-isopropylbenzo[d]thiazole], the figures for the Emax at hD2L receptors (setting [1]) and at D2L receptors were 33% and < 20%, respectively.
For `CCc1nc2cc(OCCCCN3CCN(c4cccc5ccc(C)nc45)CC3)ccc2s1` [Compound 48, 2-Ethyl-5-(4-(4-(2-methylquinolin-8-yl)piperazin-1-yl)butoxy)benzo[d]thiazole] the same measures were 33% and < 20%.
On to `CCc1nc2cc(OCCCCN3CCN(c4cccc5c4OCCN5)CC3)ccc2s1` [Compound 50, 8-(4-(4-((2-Ethylbenzo[d]thiazol-5-yl)oxy)butyl)piperazin-1-yl)-3,4-dihydro-2H-benzo[b][1,4]oxazine], for which, at D2L receptors, the maximum response (Emax) is 33%. The compound also gave an EC50 at D2L receptors (Tango assay) of 6.4 nM.
`CC(C)c1nc2cc(OCCCCN3CCN(c4cccc5c4OCCN5)CC3)ccc2s1` [Compound 51, 8-(4-(4-((2-Isopropylbenzo[d]thiazol-5-yl)oxy)butyl)piperazin-1-yl)-3,4-dihydro-2H-benzo[b][1,4]oxazine]: at hD2L receptors (setting [1]), the Emax worked out at 48%.
Take `CCc1nc2cc(OCCCCN3CCN(c4cccc5c4OCCO5)CC3)ccc2s1` [Compound 52, 5-(4-(4-(2,3-Dihydrobenzo[b][1,4]dioxin-5-yl)piperazin-1-yl)butoxy)-2-ethylbenzo[d]thiazole]: the “activity in Gi/o signaling (in words)” value on hD2L receptors was “inactive”. The “activity in β-arrestin recruitment (in words)” value at D2L receptors (Tango assay) is “inactive”.
Turning to `CNc1nc2cc(OCCCCN3CCN(c4cccc5c4OCCN5)CC3)ccc2s1` [Compound 56, 5-(4-(4-(3,4-Dihydro-2H-benzo[b][1,4]oxazin-8-yl)piperazin-1-yl)butoxy)-N-methylbenzo[d]thiazol-2-amine], the Emax worked out at 49% on hD2L receptors (setting [1]) and 29% on D2L receptors. At D2L receptors (Tango assay), it took 6.5 nM to reach a half-maximal effect (EC50).
On to `CNc1nc2cc(OCCCCN3CCN(c4cccc5c4OCCO5)CC3)ccc2s1` [Compound 57, 5-(4-(4-(2,3-Dihydrobenzo[b][1,4]dioxin-5-yl)piperazin-1-yl)butoxy)-N-methylbenzo[d]thiazol-2-amine], for which the “activity in Gi/o signaling (in words)” value at hD2L receptors is “inactive”. Besides, the “activity in β-arrestin recruitment (in words)” value on D2L receptors (Tango assay) was “inactive”.
On to `Cc1nc2ccc(OCCCCN3CCC(c4cccc(Cl)c4Cl)CC3)cc2s1` [Compound 58, 6-(4-(4-(2,3-Dichlorophenyl)piperidin-1-yl)butoxy)-2-methylbenzo[d]thiazole], for which the Emax at hD2L receptors (setting [1]) is 56%; on D2L receptors it was 24%. On D2L receptors (Tango assay), this compound had an EC50 of 460 nM.

Values taken from paper PMC5148701 (Journal of medicinal chemistry, 2016).
